The values that follow come from ChEMBL document CHEMBL3132804, “Synthesis and biological evaluation of novel quinoxalinone-based HIV-1 reverse transcriptase inhibitors” (Medchemcomm, 2014).

In general, IC50 refers to the concentration that inhibits the measured activity by half.

For test [1], the system named is Human immunodeficiency virus 1. The experiment in a line: Selectivity ratio of IC50 for HIV1 VSVG harboring reverse transcriptase Y181C mutant to IC50 for wild type HIV1 VSVG. Format: functional.
The test system of test [2] is Human immunodeficiency virus 1. The test can be described thus: Antiviral activity against HIV1 VSVG harboring reverse transcriptase K103N mutant infected in 293ET cells assessed as inhibition of viral replication by luciferase reporter gene assay. Format: functional, organism-based.
The subject of test [3] is Human immunodeficiency virus 1. The test can be described thus: Selectivity ratio of IC50 for HIV1 VSVG harboring reverse transcriptase K103N mutant to IC50 for wild type HIV1 VSVG. Format: functional.
The subject of test [4] is Human immunodeficiency virus 1. The test can be described thus: Antiviral activity against wild type HIV1 VSVG infected in 293ET cells assessed as inhibition of viral replication by luciferase reporter gene assay. Format: functional, organism-based.
Test [5] concerns Human immunodeficiency virus 1. The test can be described thus: Antiviral activity against HIV1 VSVG harboring reverse transcriptase Y181C mutant infected in 293ET cellsassessed as inhibition of viral replication by luciferase reporter gene assay. Format: functional, organism-based.
Setting [6] is: Human immunodeficiency virus 1, VSVG, 293ET, read-out: IC50.

Turning to `COC(=O)c1sc(I)cc1S(=O)(=O)N1c2cc(Cl)ccc2NC(=O)C1C` (stereo unspecified), the “Ratio IC50” value is >133 in test [1] and 89 in test [3]. Besides, the IC50 in test [2] was 6.68 µM; in test [4] (setting [6]), 0.075 µM; in test [5], > 10 µM.

For the molecule `CC1C(=O)Nc2ccc(Cl)cc2N1S(=O)(=O)c1cc(Cl)sc1-c1cnco1` (stereo unspecified), in test [4] (setting [6]), the IC50 is 4.44 µM.

Regarding `CON(C)C(=O)c1sccc1S(=O)(=O)N1c2cc(Cl)ccc2NC(=O)C1C` (stereo unspecified), in test [4] (293et), the IC50 result was “Not Active”.

In the case of `CC1C(=O)Nc2ccc(Cl)cc2N1S(=O)(=O)c1ccsc1C(=O)O` (stereo unspecified), the IC50 entry in test [4] (293et) was “Not Active”.

As for `CC1C(=O)Nc2ccc(Cl)cc2N1S(=O)(=O)c1cc(Cl)sc1CO` (stereo unspecified), the IC50 result in test [4] (293et) is recorded as “Not Active”.

`CC1C(=O)Nc2ccc(Cl)cc2N1S(=O)(=O)c1cc(Cl)sc1C=O` (stereo unspecified): in test [4] (293et), the IC50 entry is reported as “Not Active”.

For `CC1C(=O)Nc2ccc(Cl)cc2N1S(=O)(=O)c1ccsc1/C=N\c1nccs1` (stereo unspecified), the IC50 result in test [4] (293et) is “Not Active”.

Consider `COC(=O)c1sccc1S(=O)(=O)N1c2cc(Cl)ccc2NC(=O)C1C` (stereo unspecified), for which the “Ratio IC50” value in test [1] is >50; in test [3], 13. The IC50 was 2.6 µM in test [2] and > 10 µM in test [5].

With `COC(=O)c1sc(Cl)cc1S(=O)(=O)N1c2cc(Cl)ccc2NC(=O)C1C` (stereo unspecified), the “Ratio IC50” value was >143 in test [1] and 113 in test [3]. Also, the results for the concentration for half-maximal inhibition (IC50) in test [2], in test [4] (setting [6]) and in test [5] were 7.94 µM, 0.07 µM and > 10 µM, respectively.

`CC1C(=O)Nc2ccc(Cl)cc2N1S(=O)(=O)c1ccsc1CO` (stereo unspecified): in test [4] (293et), the IC50 result was “Not Active”.

Consider `COC(=O)c1sc(-c2cccc(OC)c2)cc1S(=O)(=O)N1c2cc(Cl)ccc2NC(=O)C1C` (stereo unspecified), for which the IC50 in test [4] (setting [6]) was 9.68 µM.

In the case of `COC(=O)c1sc(-c2cccs2)cc1S(=O)(=O)N1c2cc(Cl)ccc2NC(=O)C1C` (stereo unspecified), the IC50 in test [4] (setting [6]) was 6.53 µM.

Take `CC(C)OC(=O)c1sccc1S(=O)(=O)N1c2cc(Cl)ccc2NC(=O)C1C` (stereo unspecified): the “Ratio IC50” value in test [1] and in test [3] was >9 in each case. The results for the IC50 in test [2], in test [4] (setting [6]) and in test [5] were > 10 µM, 1.09 µM and > 10 µM, respectively.

Turning to `Cc1ccnc2c1NC(=O)c1cccnc1N2C1CC1` [NEVIRAPINE], the “Ratio IC50” value is given as >250 in test [1] and 32 in test [3]. For the same molecule, the IC50 in test [2] was 1.29 µM; in test [4] (setting [6]), 0.04 µM; in test [5], > 10 µM.

As to `COC(=O)c1sc(-c2ccccc2)cc1S(=O)(=O)N1c2cc(Cl)ccc2NC(=O)C1C` (stereo unspecified), in test [4] (setting [6]), the IC50 came to 9.05 µM.

On to `CC(C)OC(=O)c1sc(Cl)cc1S(=O)(=O)N1c2cc(Cl)ccc2NC(=O)C1C` (stereo unspecified), for which, in test [4] (setting [6]), the IC50 was 5.55 µM.

Regarding `CC(C)NC(=O)c1sccc1S(=O)(=O)N1c2cc(Cl)ccc2NC(=O)C1C` (stereo unspecified), the IC50 entry in test [4] (293et) is on record as “Not Active”.

Regarding `CC1C(=O)Nc2ccc(Cl)cc2N1S(=O)(=O)c1cc(Cl)sc1C(=O)O` (stereo unspecified), the IC50 entry in test [4] (293et) is “Not Active”.

For the molecule `COC(=O)c1sc(Br)cc1S(=O)(=O)N1c2cc(Cl)ccc2NC(=O)C1C` (stereo unspecified), the results for the “Ratio IC50” value in test [1] and in test [3] were >77 and 49, respectively. Further, the IC50 was 6.39 µM in test [2], 0.13 µM in test [4] (setting [6]) and > 10 µM in test [5].

Consider `CC1C(=O)Nc2ccc(Cl)cc2N1S(=O)(=O)c1ccsc1CNc1nccs1` (stereo unspecified), for which the IC50 result in test [4] (293et) is listed as “Not Active”.

As for `COC(=O)c1sc(-c2ccco2)cc1S(=O)(=O)N1c2cc(Cl)ccc2NC(=O)C1C` (stereo unspecified), the “Ratio IC50” value in test [1] and in test [3] was >5 each time. The IC50 in test [2] is > 10 µM; in test [4] (setting [6]) it was 1.97 µM; in test [5], > 10 µM.

Turning to `CC1C(=O)Nc2ccc(Cl)cc2N1S(=O)(=O)c1cc(Cl)sc1CNc1nccs1` (stereo unspecified), the IC50 entry in test [4] (293et) is “Not Active”.

Regarding `CC(C)=CCOC(=O)c1sccc1S(=O)(=O)N1c2cc(Cl)ccc2NC(=O)C1C` (stereo unspecified), the “Ratio IC50” value in test [1] and in test [3] was >13 in each case. Also, the IC50 in test [2] is > 10 µM; in test [4] (setting [6]), 0.77 µM; in test [5], > 10 µM.

Consider `CC1C(=O)Nc2ccc(Cl)cc2N1S(=O)(=O)c1ccsc1C=O` (stereo unspecified), for which the IC50 entry in test [4] (293et) is given as “Not Active”.

`CC1C(=O)Nc2ccc(Cl)cc2N1S(=O)(=O)c1cc(Cl)sc1/C=N\c1nccs1` (stereo unspecified): the IC50 result in test [4] (293et) is listed as “Not Active”.
